This passage reports IC50 results from patent US9403830B2, “Inhibitors of leukotriene production” (Boehringer Ingelheim International GmbH, priority 2012, dated 2016).

Assay [1] has as its target T1, human LTA4 hydrolase (Homo sapiens, UniProt P09960).
T1 sequence (P09960 1-611): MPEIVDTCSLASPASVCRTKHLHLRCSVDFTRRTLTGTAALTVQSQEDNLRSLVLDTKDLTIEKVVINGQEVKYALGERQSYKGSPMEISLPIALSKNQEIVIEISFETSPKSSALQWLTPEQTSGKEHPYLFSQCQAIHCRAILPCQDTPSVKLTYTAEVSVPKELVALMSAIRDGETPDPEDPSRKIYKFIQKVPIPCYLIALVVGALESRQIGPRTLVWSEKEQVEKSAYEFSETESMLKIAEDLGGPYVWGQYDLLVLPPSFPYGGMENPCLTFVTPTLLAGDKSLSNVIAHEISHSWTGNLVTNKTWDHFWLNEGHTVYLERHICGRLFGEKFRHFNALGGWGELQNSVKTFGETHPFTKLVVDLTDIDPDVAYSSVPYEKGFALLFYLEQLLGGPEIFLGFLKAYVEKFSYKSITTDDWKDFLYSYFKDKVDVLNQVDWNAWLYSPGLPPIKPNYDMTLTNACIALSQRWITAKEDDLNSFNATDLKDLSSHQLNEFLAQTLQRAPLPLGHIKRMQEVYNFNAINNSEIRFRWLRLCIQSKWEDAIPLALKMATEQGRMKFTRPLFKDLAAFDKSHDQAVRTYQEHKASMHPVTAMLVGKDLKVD
As to the kind of experiment: LTA4H Enzyme assay (peptidase, Arg-AMC cleavage). To be noted: LTA4H enzyme 1 nM, Arg-AMC substrate 50 μM, room temperature 1 h, fluorescence 380/460 nm. The assay is classed as biochemical. The essentials: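 Human LTA4H (1 nM final) incubated with compound and Arg-AMC (50 μM final) in 50 mM Tris-HCl pH 7.5, 100 mM KCl, 0.5% BSA, 1 h at room temperature. Product read as AMC fluorescence (ex 380/em 460 nm); IC50 reported.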

The subject of assay [2] is LTB4 synthesis in human whole blood. Description: human whole blood (HWB) assay, inhibition of LTB4 production. The assay is classed as cell-based. To be noted: heparinized human whole blood, calcimycin 20 μM stimulation, plasma LTB4. The essentials:
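Heparinized human whole blood preincubated with compound 15 min at 37 °C, then stimulated with 20 μM (final) calcimycin for 30 min at 37 °C. Plasma LTB4 measured by antibody-based HTRF; IC50 reported.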

Broadly, the IC50 is the concentration that gives 50% inhibition. With `CC(=O)N1CC2CCC(C1)N2Cc1ccc2cc(Oc3ccc(-c4ccn[nH]4)cn3)ccc2n1` [Example 24, 1-(8-{6-[5-(2H-Pyrazol-3-yl)-pyridin-2-yloxy]-quinolin-2-ylmethyl}-3,8-diaza-bicyclo[3.2.1]oct-3-yl)-ethanone], the IC50 turned out to be 0.33 nM in assay [1] and 99 nM in assay [2].
Turning to `O=C(CO)N1CCN(Cc2ccc3cc(Oc4ccc(-c5ccn[nH]5)cc4)ccc3n2)CC1` [Example 10, 2-hydroxy-1-(4-{6-[4-(2H-pyrazol-3-yl)-phenoxy]-quinolin-2-ylmethyl}-piperazin-1-yl)-ethanone], the IC50 in assay [1] stood at 0.53 nM; in assay [2], 150 nM.
The like results for `c1cc(-c2ccc(Oc3ccc4nc(CN5C[C@@H]6C[C@H]5CO6)ccc4c3)nc2)[nH]n1` [Example 178, 2-[(1S,4S)-1-(2-Oxa-5-aza-bicyclo[2.2.1]hept-5-yl)methyl]-6-[5-(2H-pyrazol-3-yl)-pyridin-2-yloxy]-quinoline] were, in that order, 0.74 nM and 150 nM.
As for `COCCN(Cc1nc2cc(Oc3ccc(-c4ccn[nH]4)cc3)ccc2[nH]1)C(C)C` [Example 183, Isopropyl-(2-methoxy-ethyl)-{5-[4-(2H-pyrazol-3-yl)-phenoxy]-1H-benzoimidazol-2-ylmethyl}-amine], the IC50 in assay [1] was determined as 0.17 nM; in assay [2], 150 nM.
For the compound `CC(=O)N1CCN(Cc2cc3ccc(Oc4ccc(-c5ccn[nH]5)cn4)cc3[nH]2)CC1` [Example 221, 1-(4-{6-[5-(2H-Pyrazol-3-yl)-pyridin-2-yloxy]-1H-indol-2-ylmethyl}-piperazin-1-yl)-ethanone], the IC50 is 0.27 nM in assay [1] and 170 nM in assay [2].
The like results for `CN(Cc1nc2cc(Oc3ccc(-c4ccn[nH]4)cc3)ccc2[nH]1)CC1COCCO1` (stereo not drawn) [Example 87, [1,4]Dioxan-2-ylmethyl-methyl-{5-[4-(2H-pyrazol-3-yl)-phenoxy]-1H-benzoimidazol-2-ylmethyl}-amine] were, in that order, 0.36 nM and 120 nM.
For the compound `O=C1CC[C@H](Oc2ccc3cc(Oc4ccc(-c5ccn[nH]5)cc4)ccc3n2)CN1` [Example 68, (S)-5-{6-[4-(2H-Pyrazol-3-yl)-phenoxy]-quinolin-2-yloxy}-piperidin-2-one], the IC50 in assay [1] worked out at 4.2 nM; in assay [2], 590 nM.
The like results for `O=C1CC[C@@H](OCc2cn3cc(Oc4ccc(-c5ccn[nH]5)cc4)ccc3n2)CN1` [Example 260, (R)-5-{6-[4-(2H-Pyrazol-3-yl)-phenoxy]-imidazo[1,2-a]pyridin-2-ylmethoxy}-piperidin-2-one] were, in that order, 5.3 nM and 2200 nM.
As for `O=S1(=O)CC2CC1CN2Cc1ccc2cc(Oc3ccc(-c4ccn[nH]4)cc3)ccc2n1` (stereo not drawn) [Example 17, 2-(2,2-Dioxo-2-λ-6-thia-5-aza-bicyclo[2.2.1]hept-5-ylmethyl)-6-[4-(2H-pyrazol-3-yl)-phenoxy]-quinoline], the IC50 in assay [1] was found to be 1.1 nM; in assay [2], 430 nM.
Take `c1cncc(Cc2nc3cc(Oc4ccc(-c5ccn[nH]5)cc4)ccc3[nH]2)c1` [Example 73, 5-[4-(2H-Pyrazol-3-yl)-phenoxy]-2-pyridin-3-ylmethyl-1H-benzoimidazole]: the IC50 was found to be 0.36 nM in assay [1] and 330 nM in assay [2].
`c1cc(-c2ccc(Oc3ccc4[nH]c(CN[C@H]5CCOC5)nc4c3)cc2)[nH]n1` [Example 194, {5-[4-(2H-Pyrazol-3-yl)-phenoxy]-1H-benzoimidazol-2-ylmethyl}-(S)-tetrahydro-furan-3-yl-amine]: the results for the 50% inhibitory concentration (IC50) in assay [1] and in assay [2] were 0.18 nM and 180 nM, respectively.
The like results for `c1cc(-c2ccc(Oc3ccc4[nH]c(CNC[C@H]5CCCO5)nc4c3)cc2)[nH]n1` [Example 101, {5-[4-(2H-Pyrazol-3-yl)-phenoxy]-1H-benzoimidazol-2-ylmethyl}-[(R)-1-(tetrahydro-furan-2-yl)methyl]-amine] were, in that order, 0.55 nM and 190 nM.
With `CC(=O)NC1CCN(CC2Cc3ccc(Oc4ccc(-c5ccn[nH]5)cc4)cc3O2)CC1` (stereo not drawn) [Example 219, N-(1-[6-[4-(2H-Pyrazol-3-yl)-phenoxy]-2,3-dihydro-benzofuran-2-ylmethyl]-piperidin-4-yl)-acetamide], the IC50 came to 0.22 nM in assay [1] and 110 nM in assay [2].
The like results for `CO[C@H]1CCN(Cc2ccc3cc(Oc4ccc(-c5ccn[nH]5)cn4)ccc3n2)C1` [Example 208, 2-((S)-3-Methoxy-pyrrolidin-1-ylmethyl)-6-[5-(2H-pyrazol-3-yl)-pyridin-2-yloxy]-quinoline] were, in that order, 1.2 nM and 220 nM.
For `CC(=O)N1CC2CCC(C1)N2Cc1ccc2cc(Oc3ccc(-c4ccn[nH]4)cc3)ccc2n1` [Example 245, 1-(8-{6-[4-(2H-Pyrazol-3-yl)-phenoxy]-quinolin-2-ylmethyl}-3,8-diaza-bicyclo[3.2.1]oct-3-yl)-ethanone], the IC50 in assay [1] was 0.18 nM; in assay [2] it was 170 nM.
With `CNC(=O)C1CCN(CCc2coc3cc(Oc4ccc(-c5ccn[nH]5)cn4)ccc23)CC1` [Example 138, 1-(2-{6-[5-(2H-Pyrazol-3-yl)-pyridin-2-yloxy]-benzofuran-3-yl}-ethyl)-piperidine-4-carboxylic acid methylamide], the results for the IC50 in assay [1] and in assay [2] were 0.39 nM and 190 nM, respectively.
`c1cc(-c2ccc(Oc3ccc4c(cnn4CCN4CCOCC4)c3)nc2)[nH]n1` [Example 111, 1-(2-Morpholin-4-yl-ethyl)-5-[5-(2H-pyrazol-3-yl)-pyridin-2-yloxy]-1H-indazole]: the IC50 in assay [1] is 2 nM; in assay [2], 280 nM.
The like results for `c1cc(-c2ccc(Oc3ccc4[nH]c(CNC5CCCC5)nc4c3)cc2)[nH]n1` [Example 188, Cyclopentyl-{5-[4-(2H-pyrazol-3-yl)-phenoxy]-1H-benzoimidazol-2-ylmethyl}-amine] were, in that order, 0.13 nM and 160 nM.
For the compound `CC[C@@H](C)N(C)Cc1nc2cc(Oc3ccc(-c4ccn[nH]4)cc3)ccc2[nH]1` [Example 80, ((R)-sec-Butyl)-methyl-{5-[4-(2H-pyrazol-3-yl)-phenoxy]-1H-benzoimidazol-2-ylmethyl}-amine], the IC50 in assay [1] came to 0.09 nM; in assay [2] it was 98 nM.
The like results for `COC1CCN(Cc2nc3cc(Oc4ccc(-c5ccn[nH]5)cc4)ccc3[nH]2)CC1` [Example 228, 2-(4-Methoxy-piperidin-1-ylmethyl)-5-[4-(2H-pyrazol-3-yl)-phenoxy]-1H-benzoimidazole] were, in that order, 0.16 nM and 180 nM.
The like results for `NC(=O)[C@@H](NCc1ccc2cc(Oc3ccc(-c4ccn[nH]4)cn3)ccc2n1)c1ccccc1` [Example 51, (S)-2-Phenyl-2-({6-[5-(2H-pyrazol-3-yl)-pyridin-2-yloxy]-quinolin-2-ylmethyl}-amino)-acetamide] were, in that order, 8.1 nM and 2200 nM.
For `COCCN1CCN(Cc2nc3cc(Oc4ccc(-c5ccn[nH]5)cc4)ccc3[nH]2)CC1` [Example 61, 2-[4-(2-Methoxy-ethyl)-piperazin-1-ylmethyl]-5-[4-(2H-pyrazol-3-yl)-phenoxy]-1H-benzoimidazole] the same measures were 0.21 nM and 140 nM.
As for `c1cc(-c2ccc(Oc3ccc4[nH]c(CN5CCSCC5)nc4c3)cc2)[nH]n1` [Example 98, 5-[4-(2H-Pyrazol-3-yl)-phenoxy]-2-thiomorpholin-4-ylmethyl-1H-benzoimidazole], the IC50 in assay [1] amounted to 0.18 nM; in assay [2], 160 nM.
On to `O[C@H]1CCN(Cc2nc3ccc(Oc4ccc(-c5ccn[nH]5)cc4)cc3[nH]2)C1` [Example 66, (S)-1-{6-[4-(2H-Pyrazol-3-yl)-phenoxy]-1H-benzoimidazol-2-ylmethyl}-pyrrolidin-3-ol], for which the IC50 is 0.14 nM in assay [1] and 240 nM in assay [2].
On to `O=C(CO)N1C2CCC1CN(Cc1ccc3cc(Oc4ccc(-c5ccn[nH]5)cn4)ccc3n1)C2` [Example 44, 2-Hydroxy-1-(3-{6-[5-(2H-pyrazol-3-yl)-pyridin-2-yloxy]-quinolin-2-ylmethyl}-3,8-diaza-bicyclo[3.2.1]oct-8-yl)-ethanone], for which the IC50 in assay [1] amounted to 0.71 nM; in assay [2], 410 nM.
`c1cc(-c2ccc(Oc3ccc4[nH]c(CN5CCCOCC5)nc4c3)cc2)[nH]n1` [Example 175, 2-[1,4]Oxazepan-4-ylmethyl-5-[4-(2H-pyrazol-3-yl)-phenoxy]-1H-benzoimidazole]: the figures for the IC50 in assay [1] and in assay [2] were 0.17 nM and 140 nM, respectively.
For `CN1CCC[C@H]1Cc1nc2cc(Oc3ccc(-c4ccn[nH]4)cc3)ccc2[nH]1` [Example 89, 2-((S)-1-Methyl-pyrrolidin-2-ylmethyl)-5-[4-(2H-pyrazol-3-yl)-phenoxy]-1H-benzoimidazole] the same measures were 0.086 nM and 130 nM.
